Measured values published in patent publication US20160115540A1, “PRODRUGS AND DRUGS” (Biogen MA Inc., priority 2013, published 2016).
Counter-ions that a name gives are not always drawn.

Columns and labels:
cerebellum = experiment: Transcriptional profiling on Affymetrix GeneChips, single dose, naïve mice: cerebellum; assay type: in vivo, C57BL/6 mice; settings: for Number of differentially expressed genes identified: Cerebellum: Naïve, Single Dose
Procedure: In vivo, DMF is rapidly metabolized to monomethyl fumarate (MMF).
(§1) Animals were exposed to CO2 and whole blood collected via cardiac puncture. Two 100 μl aliquots of whole blood were collected in 1.5 mL microcentrifuge tubes and snap frozen in liquid nitrogen. Peripheral (liver, spleen, kidney and jejunum) and CNS brain (cerebellum, hippocampus, striatum and cortex) tissues were harvested and snap frozen in liquid nitrogen, with special care taken to collect tissues of similar size and from the same location. All samples were stored at −80° C. until RNA extraction was conducted.
(§2) For RNA preparation, frozen tissues were placed in 2 mL RNAse-free 96-well blocks with 1.5 mL QIAzol Lysis Reagent (QIAgen) and a 3.2 mm stainless steel bead (BioSpec Products, Bartlesville, Okla.). Tissues were disrupted for four cycles of 45 seconds in a Mini-Beadbeater (Biospec Products). RNA was extracted in chloroform and the aqueous phase was mixed with an equal volume of 70% ethanol. Extracted RNA was applied to RNeasy 96 plates and purified by the spin method according to the manufacturer's protocol (RNeasy 96 Universal Tissue Protocol, QIAgen, Hilden Germany).
(§3) Automated sample amplifications and biotin labelings were carried out using the NuGEN Ovation RNA Amplification system V2 (Cat #3100), Ovation WB reagent (Cat #1300) and Encore Biotin module (Cat #4200) (NuGEN Technologies, Inc, San Carlos, Calif.) according to manufacturer's recommendations using an Arrayplex automated liquid handler (Beckman Coulter, Indianapolis, Ind.). Two micrograms of biotin labeled sscDNA probe were hybridized to Affymetrix GeneChip Affymetrix HT_MG-430_PM plate arrays with modified conditions as described in Allaire et al. Washing and staining of the hybridized arrays were completed as described in the GeneChip Expression analysis technical manual for HT plate arrays using the Genechip® Array Station (Affymetrix, Santa Clara, Calif.) with modifications as described in Allaire et al. The processed GeneChip® plate arrays were scanned using GeneTitan scanner (Affymetrix, Santa Clara, Calif.).
(§4) Affymetrix scans were subject to quality control (QC) measures. These tests included a visual inspection of the distribution of raw signal intensities and an assessment of RNA degradation, relative log expression (RLE), and normalized unsealed standard error (NUSE). All sample scans that passed these QC metrics were included in the analysis.
(§5) All CEL files were subjected to GC-content-based Robust Multi-array Average (GCRMA) normalization (version 2.20.0) (Irizarry R A, et al. Nucleic Acids Res 2003; 31:e15; Li C, et al. Genome Biol 2001; 2:[…]0032). Expression levels were log (base 2) transformed.
(§6) All calculations and analyses were carried out using R (version 2.11.1) and Bioconductor computational tools (Gentleman R. Springer Science+Business Media 2005).

cortex = experiment: Transcriptional profiling on Affymetrix GeneChips, single dose, naïve mice: cortex; assay type: in vivo, C57BL/6 mice; settings: for Number of differentially expressed genes identified: Cortex: Naïve, Single Dose
Procedure: Treated mice were sacrificed at 2, 7, or 12 hours. Tissues (liver, spleen, kidney, jejunum, cortex, hippocampus, striatum and whole blood) were collected and analyzed by transcriptional profiling on mouse Affymetrix GeneChips.
Tissues (liver, spleen, kidney, jejunum, cortex, hippocampus, striatum and whole blood) were collected and analyzed by transcriptional profiling on mouse Affymetrix GeneChips.
as §1, §2, §3, §4, §5, §6

[1] = 100 mpk DMF-vs-100 mpk MMF, 2 h after last dosing
[2] = 100 mpk DMF-vs-100 mpk MMF, 7 h after last dosing
[3] = 100 mpk DMF-vs-100 mpk MMF, 12 h after last dosing
[4] = 100 mpk, vs Vehicle, 2 h after last dosing
[5] = 100 mpk, vs Vehicle, 7 h after last dosing
[6] = 100 mpk, vs Vehicle, 12 h after last dosing
[7] = cerebellum, 100MMF-vs-Veh, 12 h
[8] = cortex, 2 hr after single 100 mg/kg oral dose
[9] = cortex, 7 hr after single 100 mg/kg oral dose

COC(=O)/C=C/C(=O)OC [DMF, dimethyl fumarate]
Number of differentially expressed genes identified: Cerebellum (cerebellum; [1]): 0 | Number of differentially expressed genes identified: Cerebellum (cerebellum; [2]): 0 | Number of differentially expressed genes identified: Cerebellum (cerebellum; [3]): 0 | Number of differentially expressed genes identified: Cerebellum (cerebellum; [4]): 0 | Number of differentially expressed genes identified: Cerebellum (cerebellum; [5]): 0 | Number of differentially expressed genes identified: Cerebellum (cerebellum; [6]): 0 | differentially expressed genes (cerebellum; cerebellum, 100DMF-vs-100MMF, 2 h): None | differentially expressed genes (cerebellum; cerebellum, 100DMF-vs-100MMF, 7 h): None | differentially expressed genes (cerebellum; cerebellum, 100DMF-vs-100MMF, 12 h): None | differentially expressed genes (cerebellum; cerebellum, 100DMF-vs-Veh, 2 h): None | differentially expressed genes (cerebellum; cerebellum, 100DMF-vs-Veh, 7 h): None | differentially expressed genes (cerebellum; cerebellum, 100DMF-vs-Veh, 12 h): None | Number of genes, DMF Only / MMF Only (cortex; Cortex): 2 | Fgfbp1 (1419086_PM_at) differential expression (cortex; Cortex, 7 hr): 1.54 | Nqo1 (1423627_PM_at) differential expression (cortex; Cortex, 7 hr): 1.50 | Number of differentially expressed genes identified: Cortex (cortex; [1]): 0 | Number of differentially expressed genes identified: Cortex (cortex; [2]): 0 | Number of differentially expressed genes identified: Cortex (cortex; [3]): 0 | Number of differentially expressed genes identified: Cortex (cortex; [4]): 2 | Number of differentially expressed genes identified: Cortex (cortex; [5]): 2 | Number of differentially expressed genes identified: Cortex (cortex; [6]): 0 | differentially expressed genes (cortex; cortex, 100DMF-vs-100MMF, 2 h): None | differentially expressed genes (cortex; cortex, 100DMF-vs-100MMF, 7 h): None | differentially expressed genes (cortex; cortex, 100DMF-vs-100MMF, 12 h): None | FC AI314604 (1442075_PM_at) (cortex; cortex, 100DMF-vs-Veh, 2 h): 1.57 | FC Ciapin1 (1448140_PM_at) (cortex; cortex, 100DMF-vs-Veh, 2 h): 1.55 | FC Fgfbp1 1419086_PM_at (cortex; cortex, 100DMF-vs-Veh, 7 h): 1.54 | FC Nqo1 (1423627_PM_at) (cortex; cortex, 100DMF-vs-Veh, 7 h): 1.50 | differentially expressed genes (cortex; cortex, 100DMF-vs-Veh, 12 h): None

COC(=O)/C=C/C(=O)O [MMF, monomethyl fumarate]
Number of differentially expressed genes identified: Cerebellum (cerebellum; [4]): 2 | Number of differentially expressed genes identified: Cerebellum (cerebellum; [5]): 0 | Number of differentially expressed genes identified: Cerebellum (cerebellum; [6]): 3 | FC Csnk2a1 (1419034_PM_at) (cerebellum; cerebellum, 100MMF-vs-Veh, 2 h): −1.65 | FC Trak2 (1429607_PM_at) (cerebellum; cerebellum, 100MMF-vs-Veh, 2 h): −1.55 | FC Hif3a (1425428_PM_at) (cerebellum; [7]): 1.58 | FC Pnpla7 (1451361_PM_a_at) (cerebellum; [7]): 1.52 | FC Vnn1 (1447845_PM_s_at) (cerebellum; [7]): 1.83 | Number of genes, DMF Only / MMF Only (cortex; Cortex): 14 | Arnt2 (1420670_PM_at) differential expression (cortex; Cortex, 2 hr): −1.66 | Atrn (1421166_PM_at) differential expression (cortex; Cortex, 2 hr): −1.62 | Chka (1442277_PM_at) differential expression (cortex; Cortex, 2 hr): −1.53 | Ednrb (1423594_PM_a_at) differential expression (cortex; Cortex, 2 hr): −1.53 | Extl3 (1421339_PM_at) differential expression (cortex; Cortex, 2 hr): −1.57 | Mkln1 (1416734_PM_at) differential expression (cortex; Cortex, 2 hr): −1.85 | Plekhm3 (1438108_PM_at) differential expression (cortex; Cortex, 2 hr): −1.50 | Ptk2 (1430827_PM_a_at) differential expression (cortex; Cortex, 2 hr): −1.53 | Ptprg (1456070_PM_at) differential expression (cortex; Cortex, 2 hr): −1.83 | Speer4b (1429992_PM_at) differential expression (cortex; Cortex, 2 hr): −1.60 | Tanc2 (1443123_PM_at) differential expression (cortex; Cortex, 2 hr): −1.72 | Top2b (1448458_PM_at) differential expression (cortex; Cortex, 2 hr): −1.51 | Trak2 (1429607_PM_at) differential expression (cortex; Cortex, 2 hr): −1.57 | Aox1 (1419435_PM_at) differential expression (cortex; Cortex, 7 hr): 1.65 | Fgfbp1 (1419086_PM_at) differential expression (cortex; Cortex, 7 hr): 1.62 | Aox1 (1419435_PM_at) differential expression (cortex; Cortex, 12 hr): 1.54 | Number of differentially expressed genes identified: Cortex (cortex; [4]): 9 | Number of differentially expressed genes identified: Cortex (cortex; [5]): 2 | Number of differentially expressed genes identified: Cortex (cortex; [6]): 1 | FC Arnt2 (1420670_PM_at) (cortex; cortex, 100MMF-vs-Veh, 2 h): −1.66 | FC Atrn (1421166_PM_at) (cortex; cortex, 100MMF-vs-Veh, 2 h): −1.62 | FC Ednrb (1423594_PM_a_at) (cortex; cortex, 100MMF-vs-Veh, 2 h): −1.53 | FC Mkln1 (1416734_PM_at) (cortex; cortex, 100MMF-vs-Veh, 2 h): −1.85 | FC Plekhm3 (1438108_PM_at) (cortex; cortex, 100MMF-vs-Veh, 2 h): −1.50 | FC Ptk2 (1430827_PM_a_at) (cortex; cortex, 100MMF-vs-Veh, 2 h): −1.53 | FC Tanc2 (1443123_PM_at) (cortex; cortex, 100MMF-vs-Veh, 2 h): −1.72 | FC Top2b (1448458_PM_at) (cortex; cortex, 100MMF-vs-Veh, 2 h): −1.51 | FC Trak2 (1429607_PM_at) (cortex; cortex, 100MMF-vs-Veh, 2 h): −1.57 | FC Aox1 (1419435_PM_at) (cortex; cortex, 100MMF-vs-Veh, 7 h): 1.65 | FC Fgfbp1 1419086_PM_at (cortex; cortex, 100MMF-vs-Veh, 7 h): 1.62 | FC Aox1 (1419435_PM_at) (cortex; cortex, 100MMF-vs-Veh, 12 h): 1.54 | Arnt2 mRNA fold change vs vehicle (cortex; [8]): −1.66 | Atrn mRNA fold change vs vehicle (cortex; [8]): −1.62 | Chka mRNA fold change vs vehicle (cortex; [8]): −1.53 | Ednrb mRNA fold change vs vehicle (cortex; [8]): −1.53 | Extl3 mRNA fold change vs vehicle (cortex; [8]): −1.57 | Mkln1 mRNA fold change vs vehicle (cortex; [8]): −1.85 | Plekhm3 mRNA fold change vs vehicle (cortex; [8]): −1.50 | Ptk2 mRNA fold change vs vehicle (cortex; [8]): −1.53 | Ptprg mRNA fold change vs vehicle (cortex; [8]): −1.83 | Speer4b mRNA fold change vs vehicle (cortex; [8]): −1.60 | Tanc2 mRNA fold change vs vehicle (cortex; [8]): −1.72 | Top2b mRNA fold change vs vehicle (cortex; [8]): −1.51 | Trak2 mRNA fold change vs vehicle (cortex; [8]): −1.57 | Aox1 mRNA fold change vs vehicle (cortex; [9]): 1.65 | Fgfbp1 mRNA fold change vs vehicle (cortex; [9]): 1.62 | Aox1 mRNA fold change vs vehicle (cortex; cortex, 12 hr after single 100 mg/kg oral dose): 1.54
